The source of these data is ChEMBL document CHEMBL1201862, “PubChem BioAssay data set” (2004).

Each structure is given as a SMILES string. Where “and” joins values, the source holds several entries; their conditions need not be identical. Identical values can stand only once.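 Interpolation was linear, between the two tested concentrations surrounding the appropriate level; five concentrations were tested over 48 hours in 96-well plates. GI50 marks 50% less growth.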 Calls of active or inactive are those of the source. Cut-off read from the data, not from the text of the source: active = GI50 up to about 1.1 µM and inactive = higher.

Among the test systems are A498; A549; CCRF-CEM; HCT-15; Hs-578T; LOX IMVI; MDA-MB-231; OVCAR-4; OVCAR-8; RPMI-8226; RXF 393; SF-268; SK-OV-3; SW-620; UACC-62; UO-31; IGROV-1; T47D.
Common to all, as to test: DTP human tumour cell line panel, 48 h

A word on the GI50: it is the concentration giving 50% growth inhibition.

On to `Cc1ccc(S(=O)(=O)NC(=O)Nc2nnc(S(N)(=O)=O)s2)cc1`, for which the GI50 with A498 was > 100 µM (inactive); in the assay on A549 it was > 100 µM (inactive); in the assay with CCRF-CEM, < 0.01 µM (active); in the assay with HCT-15, more than 100 µM; in the assay with Hs-578T it was > 100 µM (inactive); with LOX IMVI, > 100 µM (inactive). For the same compound, the GI50 in the assay with MDA-MB-231, with OVCAR-4, in the assay with OVCAR-8, in the assay on RPMI-8226, in the assay on RXF 393 and in the assay with SF-268 was > 100 µM (inactive) each time. Also, the GI50 with SK-OV-3, in the assay with SW-620, in the assay with UACC-62 and with UO-31 was > 100 µM (inactive) each time.

Take `N#CC12CNCC1CN=N2` (stereo unspecified): the GI50 is > 100 µM (inactive) with A498; > 100 µM (inactive) with A549; > 100 µM (inactive) with CCRF-CEM; more than 100 µM in the assay with HCT-15; > 100 µM (inactive) in the assay on IGROV-1; > 100 µM (inactive) with LOX IMVI. Moreover, the GI50 with MDA-MB-231, with OVCAR-4, in the assay on OVCAR-8, in the assay on RXF 393, in the assay on SF-268 and with SW-620 was > 100 µM (inactive) throughout. Moreover, the GI50 in the assay on T47D, in the assay on UACC-62 and with UO-31 was > 100 µM (inactive) in each case.

As for `O=C1OC2C(O)C(=O)OC2C1O` (stereo unspecified), the GI50 in the assay on A498 is > 100 µM (inactive); in the assay on A549 it was > 100 µM (inactive); with CCRF-CEM, > 100 µM (inactive); in the assay with HCT-15 it was more than 100 µM; in the assay with IGROV-1, > 100 µM (inactive); in the assay on LOX IMVI, > 100 µM (inactive). Further, the GI50 in the assay with MDA-MB-231, with OVCAR-4, with OVCAR-8, in the assay on RXF 393, with SF-268 and in the assay with SK-OV-3 was > 100 µM (inactive) throughout. Besides, the GI50 with SW-620, in the assay with T47D, in the assay with UACC-62 and in the assay with UO-31 was > 100 µM (inactive) in each case.

Turning to `COc1ccc(C/C=C(\C)CCO)cc1`, the GI50 was > 100 µM (inactive) in the assay on A549; > 100 µM (inactive) in the assay with CCRF-CEM; more than 100 µM in the assay on HCT-15; > 100 µM (inactive) in the assay with Hs-578T; > 100 µM (inactive) with IGROV-1; > 100 µM (inactive) in the assay with LOX IMVI. Also, the GI50 in the assay with MDA-MB-231 was > 100 µM (inactive); with OVCAR-4 it was > 100 µM (inactive); with OVCAR-8, > 100 µM (inactive); in the assay on RPMI-8226, 19.7 µM (inactive); in the assay with RXF 393 it was > 100 µM (inactive); in the assay with SF-268, > 100 µM (inactive). For the same compound, the GI50 in the assay with SK-OV-3, in the assay on SW-620, in the assay with UACC-62 and in the assay on UO-31 was > 100 µM (inactive) each time.

Take `O=c1[nH]c2ccc(C(F)(F)F)cc2nc1C(F)(F)F`: the GI50 in the assay with A498 was 25.7 µM (inactive); with A549 it was 27.9 µM (inactive); with CCRF-CEM, 11.1 µM (inactive); in the assay with HCT-15, 27.9 µM; in the assay on IGROV-1, 22.8 µM (inactive); in the assay with LOX IMVI it was 20.7 µM (inactive). Also, the GI50 in the assay with MDA-MB-231 is 28.3 µM (inactive); in the assay on OVCAR-4, 36.6 µM (inactive); with OVCAR-8, 25.3 µM (inactive); with RPMI-8226, 30.6 µM (inactive); in the assay on RXF 393 it was 5 µM (inactive); in the assay on SF-268 it was 30.8 µM (inactive). Moreover, the GI50 with SK-OV-3 is 27.1 µM (inactive); in the assay on T47D, 13.2 µM (inactive); in the assay with UACC-62 it was 27.9 µM (inactive); in the assay with UO-31, 20.7 µM (inactive).

On to `CC(=O)OC(/C=C/c1ccccc1)P1(=O)N(CC(C)(C)C)[C@@H]2CCCC[C@H]2N1CC(C)(C)C` (stereo partly specified), for which the GI50 was 8.28 µM (inactive) with A498; 5.05 µM (inactive) and 4.55 µM (inactive) in the assay on A549; 4.81 µM (inactive) and 4.38 µM (inactive) in the assay with CCRF-CEM; 6.75 µM and 4.97 µM in the assay with HCT-15; 6.92 µM (inactive) and 8.67 µM (inactive) in the assay with Hs-578T; 5.11 µM (inactive) and 6.78 µM (inactive) with IGROV-1. Further, the GI50 in the assay on LOX IMVI was 11.2 µM (inactive) and 9.42 µM (inactive); in the assay on MDA-MB-231, 9.68 µM (inactive) and 7.26 µM (inactive); in the assay on OVCAR-4 it was 5.35 µM (inactive) and 5.22 µM (inactive); with OVCAR-8, 6.56 µM (inactive) and 7.1 µM (inactive); in the assay with RPMI-8226, 3.1 µM (inactive); with RXF 393, 3.24 µM (inactive) and 6.08 µM (inactive). For the same compound, the GI50 with SF-268 is 10.9 µM (inactive) and 8.45 µM (inactive); with SK-OV-3 it was 15.2 µM (inactive) and 8.71 µM (inactive); in the assay with SW-620, 9.62 µM (inactive) and 5.27 µM (inactive); with UACC-62, 9.2 µM (inactive) and 8.99 µM (inactive); in the assay on UO-31, 7.18 µM (inactive) and 4.19 µM (inactive).

Take `C(=N\C12CC3CC(CC(C3)C1)C2)/C1CCCCC1`: the GI50 in the assay with A498 is > 100 µM (inactive); in the assay with A549, > 100 µM (inactive); in the assay on CCRF-CEM it was > 100 µM (inactive); in the assay with HCT-15, more than 100 µM; in the assay on Hs-578T, > 100 µM (inactive); with IGROV-1 it was > 100 µM (inactive). Further, the GI50 in the assay on MDA-MB-231, with OVCAR-4, with OVCAR-8, in the assay on RPMI-8226, in the assay on RXF 393 and in the assay on SF-268 was > 100 µM (inactive) throughout. For the same compound, the GI50 in the assay with SW-620, in the assay on UACC-62 and in the assay with UO-31 was > 100 µM (inactive) in each case.

For the compound `CC1=CC(=O)/C(=C/NC(N)=S)C(=O)O1`, the GI50 with A549 is > 100 µM (inactive); with CCRF-CEM, 28.2 µM (inactive); in the assay on HCT-15, 98.4 µM; with Hs-578T, > 100 µM (inactive); in the assay with IGROV-1, > 100 µM (inactive); with MDA-MB-231 it was > 100 µM (inactive). Also, the GI50 in the assay with OVCAR-4 is > 100 µM (inactive); with OVCAR-8, > 100 µM (inactive); in the assay on RXF 393 it was 1.05 µM (active); with SF-268 it was > 100 µM (inactive); with SK-OV-3, 43.2 µM (inactive); with SW-620 it was > 100 µM (inactive). The figures for the GI50 with UACC-62 and in the assay on UO-31 were > 100 µM (inactive) and 38.5 µM (inactive), respectively.

For `O=C1CC[C@@]2(O)[C@H]3Cc4ccc(-c5ccccc5)c5c4[C@@]2(CCN3CC2CC2)[C@H]1O5`, the GI50 in the assay on A498 is 18.1 µM (inactive); in the assay on A549, 20.6 µM (inactive); with CCRF-CEM it was 24.4 µM (inactive); in the assay on HCT-15, 16.8 µM; with IGROV-1, 27.2 µM (inactive); in the assay with LOX IMVI, 16 µM (inactive). Besides, the GI50 was 15.2 µM (inactive) in the assay on MDA-MB-231; 35.9 µM (inactive) in the assay on OVCAR-4; 16.1 µM (inactive) with OVCAR-8; 15.4 µM (inactive) with RPMI-8226; 9.66 µM (inactive) in the assay on RXF 393; 14.3 µM (inactive) in the assay on SF-268. Besides, the GI50 is 23.9 µM (inactive) with SK-OV-3; 10.3 µM (inactive) with SW-620; 17 µM (inactive) in the assay with T47D; 12.2 µM (inactive) in the assay on UACC-62; 16.1 µM (inactive) with UO-31.

Take `O=C1/C(=C/c2cccc([N+](=O)[O-])c2)Sc2scc(-c3ccc([N+](=O)[O-])cc3)[n+]21`: the GI50 was 29.6 µM (inactive) with A549; 14.5 µM in the assay on HCT-15; 18.6 µM (inactive) in the assay with IGROV-1; 18.5 µM (inactive) with LOX IMVI; 21.9 µM (inactive) with MDA-MB-231; 30.4 µM (inactive) with OVCAR-4. For the same compound, the GI50 was 31.6 µM (inactive) in the assay on OVCAR-8; 69.5 µM (inactive) with SK-OV-3; 30 µM (inactive) with SW-620; 44.9 µM (inactive) in the assay with T47D; 18.7 µM (inactive) with UACC-62; 11.3 µM (inactive) in the assay with UO-31.

Regarding `CC(C)(C)[Si](C)(C)OCC1OC(n2ccc(=O)[nH]c2=O)C(O[Si](C)(C)C(C)(C)C)[C@@]12O[C@H]2C(N)=O` (stereo partly specified), the GI50 with A498 was > 10 µM (inactive); in the assay on A549 it was 5.75 µM (inactive); with CCRF-CEM it was > 10 µM (inactive); in the assay with HCT-15, 5.38 µM; in the assay on IGROV-1, 2.86 µM (inactive); with LOX IMVI, 3.4 µM (inactive). In addition, the GI50 is 4.61 µM (inactive) in the assay with MDA-MB-231; 18.5 µM (inactive) with OVCAR-4; 5.11 µM (inactive) with OVCAR-8; 6.17 µM (inactive) in the assay with RPMI-8226; 9.2 µM (inactive) in the assay with SF-268; 19 µM (inactive) in the assay with SK-OV-3. Besides, the GI50 in the assay with SW-620 was 6.01 µM (inactive); in the assay with UACC-62, 18.7 µM (inactive); in the assay on UO-31 it was 7.36 µM (inactive).

`CCOc1ccc(NCc2cc(OC)c(OC)c(OC)c2)cc1`: the GI50 in the assay on A549 is 1.68 µM (inactive); in the assay on HCT-15 it was 0.303 µM; with Hs-578T, 1.11 µM (active); in the assay on IGROV-1, 2.4 µM (inactive); in the assay with LOX IMVI, 0.918 µM (active); in the assay with MDA-MB-231, 1.57 µM (inactive). Further, the GI50 with OVCAR-4 was 40.1 µM (inactive); with RPMI-8226, 1.58 µM (inactive); in the assay with SF-268, 3.4 µM (inactive); in the assay on SK-OV-3, 1.17 µM (inactive); with SW-620, 0.334 µM (active); in the assay on UACC-62 it was 0.481 µM (active). In addition, in the assay on UO-31, the GI50 is 9.02 µM (inactive).

For `CCSc1nc(-c2cccs2)nc2ccc(I)cc12`, the GI50 in the assay on A549 was > 100 µM (inactive); in the assay on CCRF-CEM, > 100 µM (inactive); in the assay on HCT-15 it was 89.9 µM; in the assay with IGROV-1 it was > 100 µM (inactive); in the assay with LOX IMVI, > 100 µM (inactive); with OVCAR-4 it was > 100 µM (inactive). Besides, the GI50 with OVCAR-8 is > 100 µM (inactive); in the assay on RPMI-8226, > 100 µM (inactive); in the assay on RXF 393 it was > 100 µM (inactive); with SF-268 it was > 100 µM (inactive); with SW-620 it was > 100 µM (inactive); in the assay on T47D, 1.5 µM (inactive). Besides, the GI50 with UACC-62 and with UO-31 was > 100 µM (inactive) each time.
